# Measured values reported in US11685746B2, “Heteroaryl compounds for treating Huntington's disease” (PTC THERAPEUTICS, INC., priority 2018, dated 2023).
# Test system: Endogenous Huntingtin Protein
# Test: Endogenous Huntingtin Protein Assay (MSD plates, MW1 or MAB2166 capture antibody)
# Type: cell-based
# Conditions: Table 1
# Summary of the method: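 Sandwich MSD immunoassay: plates were coated overnight at 4° C with MW1 (expanded polyQ) or MAB2166 capture antibody at 1 μg/mL, then blocked with 5% BSA. Samples were bound overnight at 4° C, followed by rabbit mAb #5656S and SULFO-TAG anti-rabbit detection, each at 0.25 μg/mL for 1 h at room temperature. Signal was read by electrochemiluminescence.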
row,SMILES,IC50 [nM]
1,"Oc1cc(-c2cn[nH]c2)cnc1-c1nc2sc(N3CCC34CCNCC4)nc2s1 [Compound 189, 2-[5-(1,7-diazaspiro[3.5]nonan-1-yl)[1,3]thiazolo[5,4-d][1,3]thiazol-2-yl]-5-(1H-pyrazol-4-yl)pyridin-3-ol]",100 to 500
2,"Cc1cnn(-c2cnc(-c3nc4sc(N(C)[C@@H]5C[C@H]6CC[C@@H](C5)N6)nc4s3)c(O)c2)c1 [Compound 190, 2-(5-{[(1R,3s,5S)-8-azabicyclo[3.2.1]octan-3-yl](methyl)amino}[1,3]thiazolo[5,4-d][1,3]thiazol-2-yl)-5-(4-methyl-1H-pyrazol-1-yl)pyridin-3-ol]",≤ 100
3,"CN(c1nc2sc(-c3ncc(-c4ccn(C)c(=O)c4)cc3O)nc2s1)[C@@H]1C[C@H]2CC[C@@H](C1)N2 [Compound 191, 6-(5-{[(1R,3s,5S)-8-azabicyclo[3.2.1]octan-3-yl](methyl)amino}[1,3]thiazolo[5,4-d][1,3]thiazol-2-yl)-5-hydroxy-1′-methyl[3,4′-bipyridin]-2′(1′H)-one]",≤ 100
4,"Oc1cc(-c2cn[nH]c2)cnc1-c1nc2sc(N3CC4(CCCNC4)C3)nc2s1 [Compound 192, 2-[5-(2,6-diazaspiro[3.5]nonan-2-yl)[1,3]thiazolo[5,4-d][1,3]thiazol-2-yl]-5-(1H-pyrazol-4-yl)pyridin-3-ol]",≤ 100
5,"CN(c1nc2sc(-c3ncc(-n4cc(F)cn4)cc3O)nc2s1)[C@@H]1C[C@H]2CC[C@@H](C1)N2 [Compound 193, 2-(5-{[(1R,3s,5S)-8-azabicyclo[3.2.1]octan-3-yl](methyl)amino}[1,3]thiazolo[5,4-d][1,3]thiazol-2-yl)-5-(4-fluoro-1H-pyrazol-1-yl)pyridin-3-ol]",≤ 100
6,"CN(c1nc2sc(-c3ncc(-c4cn[nH]c4)cn3)nc2s1)[C@@H]1C[C@H]2CC[C@@H](C1)N2 [Compound 194, N-[(1R,3s,5S)-8-azabicyclo[3.2.1]octan-3-yl]-N-methyl-5-[5-(1H-pyrazol-4-yl)pyrimidin-2-yl][1,3]thiazolo[5,4-d][1,3]thiazol-2-amine]",≤ 100
7,"CN(c1nc2sc(-n3ccc(-c4cn[nH]c4)cc3=O)nc2s1)[C@@H]1C[C@H]2CC[C@@H](C1)N2 [Compound 195, 1-(5-{[(1R,3s,5S)-8-azabicyclo[3.2.1]octan-3-yl](methyl)amino}[1,3]thiazolo[5,4-d][1,3]thiazol-2-yl)-4-(1H-pyrazol-4-yl)pyridin-2(1H)-one]",≤ 100
8,"CN1CCC2(CC1)CN(c1nc3sc(-c4ncc(-c5cn[nH]c5)cc4O)nc3s1)C2 [Compound 196, 2-[5-(7-methyl-2,7-diazaspiro[3.5]nonan-2-yl)[1,3]thiazolo[5,4-d][1,3]thiazol-2-yl]-5-(1H-pyrazol-4-yl)pyridin-3-ol]",≤ 100
9,"Oc1cc(-c2cn[nH]c2)cnc1-c1nc2sc(N3CC4(CC5CCC(C4)N5)C3)nc2s1 [Compound 197, 5-(1H-pyrazol-4-yl)-2-[5-(spiro[8-azabicyclo[3.2.1]octane-3,3′-azetidin]-1′-yl)[1,3]thiazolo[5,4-d][1,3]thiazol-2-yl]pyridin-3-ol]",1000 to 3000
10,"Oc1cc(-c2cn[nH]c2)ccc1-c1nc2sc(N3CC4(CC5CCC(C4)N5)C3)nc2s1 [Compound 198, 5-(1H-pyrazol-4-yl)-2-[5-(spiro[8-azabicyclo[3.2.1]octane-3,3′-azetidin]-1′-yl)[1,3]thiazolo[5,4-d][1,3]thiazol-2-yl]phenol]",500 to 1000
11,"Cc1ncc(-c2cnc(-c3nc4sc(N(C)[C@@H]5C[C@H]6CC[C@@H](C5)N6)nc4s3)c(O)c2)s1 [Compound 199, 2-(5-{[(1R,3s,5S)-8-azabicyclo[3.2.1]octan-3-yl](methyl)amino}[1,3]thiazolo[5,4-d][1,3]thiazol-2-yl)-5-(2-methyl-1,3-thiazol-5-yl)pyridin-3-ol]",≤ 100
12,"COc1cc(-c2cn[nH]c2)ccc1-c1nc2sc(N(C)C3CCNCC3)nc2s1 [Compound 200, 5-[2-methoxy-4-(1H-pyrazol-4-yl)phenyl]-N-methyl-N-(piperidin-4-yl)[1,3]thiazolo[5,4-d][1,3]thiazol-2-amine]",1000 to 3000
13,"CN(c1nc2sc(-c3ncc(-c4cn[nH]c4)cn3)nc2s1)C1CCNCC1 [Compound 201, N-methyl-N-(piperidin-4-yl)-5-[5-(1H-pyrazol-4-yl)pyrimidin-2-yl][1,3]thiazolo[5,4-d][1,3]thiazol-2-amine]",500 to 1000
14,"CN(c1nc2sc(-c3ccc(-c4cn[nH]c4)cc3O)nc2s1)[C@H]1CCN[C@@H](CO)C1 [Compound 202, 2-(5-{[(2R,4S)-2-(hydroxymethyl)piperidin-4-yl](methyl)amino}[1,3]thiazolo[5,4-d][1,3]thiazol-2-yl)-5-(1H-pyrazol-4-yl)phenol]",≤ 100
15,"CN(c1nc2sc(-c3ncc(-c4cn[nH]c4)cc3O)nc2s1)[C@@H]1C[C@H]2CC[C@@H](C1)N2 [Compound 203, 2-(5-{[(1R,3s,5S)-8-azabicyclo[3.2.1]octan-3-yl](methyl)amino}[1,3]thiazolo[5,4-d][1,3]thiazol-2-yl)-5-(1H-pyrazol-4-yl)pyridin-3-ol]",≤ 100
16,"CN(c1nc2sc(-c3ncc(-c4cn[nH]c4)cc3O)nc2s1)C1CCN(C2CC2)CC1 [Compound 204, 2-{5-[(1-cyclopropylpiperidin-4-yl)(methyl)amino][1,3]thiazolo[5,4-d][1,3]thiazol-2-yl}-5-(1H-pyrazol-4-yl)pyridin-3-ol]",100 to 500

row,SMILES,IC50 [nM]
1,"CC(C)N1CCC(N(C)c2nc3sc(-c4ncc(-c5cn[nH]c5)cc4O)nc3s2)CC1 [Compound 205, 2-(5-{methyl[1-(propan-2-yl)piperidin-4-yl]amino}[1,3]thiazolo[5,4-d][1,3]thiazol-2-yl)-5-(1H-pyrazol-4-yl)pyridin-3-ol]",≤ 100
2,"CCCN1CCC(N(C)c2nc3sc(-c4ncc(-c5cn[nH]c5)cc4O)nc3s2)CC1 [Compound 206, 2-{5-[methyl(1-propylpiperidin-4-yl)amino][1,3]thiazolo[5,4-d][1,3]thiazol-2-yl}-5-(1H-pyrazol-4-yl)pyridin-3-ol]",≤ 100
3,"CCN1CCC(N(C)c2nc3sc(-c4ncc(-c5cn[nH]c5)cc4O)nc3s2)CC1 [Compound 207, 2-{5-[(1-ethylpiperidin-4-yl)(methyl)amino][1,3]thiazolo[5,4-d][1,3]thiazol-2-yl}-5-(1H-pyrazol-4-yl)pyridin-3-ol]",≤ 100
4,"Oc1cc(-c2cn[nH]c2)ccc1-c1nc2sc(C3CCNCC3)nc2s1 [Compound 208, 2-[5-(piperidin-4-yl)[1,3]thiazolo[5,4-d][1,3]thiazol-2-yl]-5-(1H-pyrazol-4-yl)phenol]",1000 to 3000
5,"Oc1cc(-c2cn[nH]c2)cnc1-c1nc2sc(N3CC4(CCNCC4)C3)nc2s1 [Compound 209, 2-[5-(2,7-diazaspiro[3.5]nonan-2-yl)[1,3]thiazolo[5,4-d][1,3]thiazol-2-yl]-5-(1H-pyrazol-4-yl)pyridin-3-ol]",≤ 100
6,"CN(c1nc2sc(-c3ncc(-c4ccc5nncn5c4)cc3O)nc2s1)C1CCNCC1 [Compound 210, 2-{5-[methyl(piperidin-4-yl)amino][1,3]thiazolo[5,4-d][1,3]thiazol-2-yl}-5-([1,2,4]triazolo[4,3-a]pyridin-6-yl)pyridin-3-ol]",3000 to 9000
7,"CN1C[C@@H]2CN(c3nc4sc(-c5ccc(-c6cn[nH]c6)cc5O)nc4s3)C[C@@H]2C1 [Compound 211, 2-{5-[(3aR,6aS)-5-methylhexahydropyrrolo[3,4-c]pyrrol-2(1H)-yl][1,3]thiazolo[5,4-d][1,3]thiazol-2-yl}-5-(1H-pyrazol-4-yl)phenol]",1000 to 3000
8,"CN(c1nc2sc(-c3ncc(-n4cncn4)cc3O)nc2s1)C1CCNCC1 [Compound 212, 2-{5-[methyl(piperidin-4-yl)amino][1,3]thiazolo[5,4-d][1,3]thiazol-2-yl}-5-(1H-1,2,4-triazol-1-yl)pyridin-3-ol]",100 to 500
9,"CN(c1nc2sc(-c3ncc(-c4cn[nH]c4)cc3O)nc2s1)[C@H]1CCNC1 [Compound 213, 2-(5-{methyl[(3S)-pyrrolidin-3-yl]amino}[1,3]thiazolo[5,4-d][1,3]thiazol-2-yl)-5-(1H-pyrazol-4-yl)pyridin-3-ol]",≤ 100
10,"CN(c1nc2sc(-c3ncc(-n4nccn4)cc3O)nc2s1)C1CCNCC1 [Compound 214, 2-{5-[methyl(piperidin-4-yl)amino][1,3]thiazolo[5,4-d][1,3]thiazol-2-yl}-5-(2H-1,2,3-triazol-2-yl)pyridin-3-ol]",500 to 1000
11,"CN(c1nc2sc(-c3ncc(-n4ccnn4)cc3O)nc2s1)C1CCNCC1 [Compound 215, 2-{5-[methyl(piperidin-4-yl)amino][1,3]thiazolo[5,4-d][1,3]thiazol-2-yl}-5-(1H-1,2,3-triazol-1-yl)pyridin-3-ol]",100 to 500
12,"CN(c1nc2sc(-c3ncc(-c4cnsc4)cc3O)nc2s1)C1CCNCC1 [Compound 216, 2-{5-[methyl(piperidin-4-yl)amino][1,3]thiazolo[5,4-d][1,3]thiazol-2-yl}-5-(1,2-thiazol-4-yl)pyridin-3-ol]",≤ 100
13,"CN1CCC(N(C)c2nc3sc(-c4ncc(-c5cn[nH]c5)cc4O)nc3s2)CC1 [Compound 217, 2-{5-[methyl(1-methylpiperidin-4-yl)amino][1,3]thiazolo[5,4-d][1,3]thiazol-2-yl}-5-(1H-pyrazol-4-yl)pyridin-3-ol]",≤ 100
14,"CCN(c1nc2sc(-c3ncc(-c4cn[nH]c4)cc3O)nc2s1)C1CCN(C)CC1 [Compound 218, 2-{5-[ethyl(1-methylpiperidin-4-yl)amino][1,3]thiazolo[5,4-d][1,3]thiazol-2-yl}-5-(1H-pyrazol-4-yl)pyridin-3-ol]",≤ 100
15,"Cc1n[nH]cc1-c1cnc(-c2nc3sc(N(C)C4CCNCC4)nc3s2)c(O)c1 [Compound 219, 2-{5-[methyl(piperidin-4-yl)amino][1,3]thiazolo[5,4-d][1,3]thiazol-2-yl}-5-(3-methyl-1H-pyrazol-4-yl)pyridin-3-ol]",≤ 100
16,"CN(c1nc2sc(-c3ncc(-c4cn[nH]c4Cl)cc3O)nc2s1)C1CCNCC1 [Compound 220, 5-(5-chloro-1H-pyrazol-4-yl)-2-{5-[methyl(piperidin-4-yl)amino][1,3]thiazolo[5,4-d][1,3]thiazol-2-yl}pyridin-3-ol]",≤ 100
